Several values for one entry are separate records, joined by “and”; a condition that tells them apart may be missing. Equal entries are not always repeated. Where two headings read alike, the source gives them in different places.
Assay: Half-life of ADR destruction by UVA light in the presence of test compounds (decrease in absorbance at 480 nm)
Format: physicochemical
[1] = UVA light, 100 μM test compound alone
[2] = UVA light, 100 μM test compound with 0.5 μM riboflavin

SMILES | Half-Life of ADR Destruction, 100 μM Test Compound [1] | Half-Life of ADR Destruction, 100 μM Test Compound and 0.5 μM Riboflavin [2] | other results
COc1ccc(C=CCO)cc1O [3-Hydroxy-4-Methoxy Cinnamyl Alcohol] | 50.2 min | 50.2 min | 
O=C(O)C(=O)c1c[nH]c2ccccc12 [3-Indole glyoxylic acid] |  | 43.0 min | 
O=C(O)CCCc1c[nH]c2ccccc12 [3-Indolebutyric acid] |  | 10.0 min | 
OCCc1c[nH]c2ccccc12 [3-Indoleethanol] |  | 8.14 min | 
O=C(O)C(O)Cc1c[nH]c2ccccc12 (stereo not drawn) [3-Indolelactic acid] |  | 6.40 min | 
COc1cccc(N)c1 [3-Methoxy Aniline] |  | 30.1 min | 
COc1cccc(C(=O)O)c1 [3-Methoxy Benzoic Acid] | 43.0 min |  | 
COc1cccc(C=CC(=O)O)c1 [3-Methoxy Cinnamic Acid] | 43.0 min | 21.5 min | 
COc1cccc(O)c1 [3-Methoxy Phenol] | 43.0 min |  | 
COc1cc(C=CC=O)ccc1O [3-Methoxy-4-Hydroxy Cinnamaldehyde] |  | 50.2 min | 
Cc1cccc(N)c1 [3-Methyl Aniline] |  |  | Half-Life of ADR Destruction, 100 μM Test Compound and 0.5 μM Riboflavin: 33.5 min
Cc1c[nH]c2ccccc12 [3-Methyl Indole] |  | 20.1 min | 
Nc1cccc(Oc2ccccc2)c1 [3-Phenoxyaniline] | 43.0 min | 12.5 min | 
OCCCc1ccccc1 [3-Phenyl-1-Propanol] | 50.2 min | 43.0 min | 
O=S(=O)=C1C=CC=C(S(=O)(=O)O)C1 [3-Sulfonyl-benzenesulfonic acid] |  | 50.2 min | 
COc1ccc(C(=O)c2cccc(C(=O)O)c2)cc1OC [3′,4′-Dimethoxy-3-benzophenonecarboxylic acid] | 50.2 min | 43.0 min | 
CC(=O)c1cccc(O)c1 [3′-Hydroxyacetophenone] | 75.3 min |  | 
COc1cccc(C(C)=O)c1 [3′-Methoxyacetophenone] | 33.4 min | 33.4 min | 
O=S(=O)(c1ccc(O)cc1)c1ccc(O)cc1 [4,4-Dihydroxy Phenylsulfone] | 43.0 min | 43.0 min | 
Nc1ccc(C(=O)c2ccc(N)cc2)cc1 [4,4′-Diamino-benzophenone] |  | 27.4 min | 
c1cc2c([nH]1)CCCC2 [4,5,6,7-tetrahydroindole] |  | 14.3 min | 
O=C(O)CCCc1ccc2ccccc2c1 [4-(2-Naphthyl)butyric acid] | 43.0 min | 15.1 min | 
COc1ccc(CCCC(=O)O)cc1 [4-(4-Methoxyphenyl) Butyric Acid] |  | 10.8 min | 

SMILES | Half-Life of ADR Destruction, 100 μM Test Compound [1] | Half-Life of ADR Destruction, 100 μM Test Compound and 0.5 μM Riboflavin [2] | other results
COc1ccc(CCCCO)cc1 [4-(4-Methoxyphenyl)-1-Butanol] | 43.0 min | 3.46 min | 
CN(C)c1ccc(C(=O)O)cc1 [4-(Dimethylamino) Benzoic Acid] |  | 75.3 min | 
CN(C)c1ccc(CN)cc1 [4-(Dimethylamino) Benzylamine] |  | 43.0 min | 
CN(C)c1ccc(CC(=O)O)cc1 [4-(Dimethylamino) Phenylacetic acid] |  | 100.3 min | 
CNc1ccc(C(=O)O)cc1 [4-(Methylamino) Benzoic Acid] |  | 75.3 min | 
Nc1ccc(OC(F)(F)F)cc1 [4-(Trifluoromethyoxy) Aniline] |  |  | Half-Life of ADR Destruction, 100 μM Test Compound and 0.5 μM Riboflavin: 43.0 min
Nc1ccc(S(N)(=O)=O)cc1 [4-Amino Benzenesulfonamide] |  |  | Half-Life of ADR Destruction, 100 μM Test Compound and 0.5 μM Riboflavin: 25.1 min
Nc1ccc(S(=O)(=O)O)cc1 [4-Amino Benzenesulfonic acid] |  | 18.8 min | 
Nc1ccc(C(=O)O)cc1 [4-Amino Benzoic Acid] |  | 20.6 ± 9.7 min | 
Nc1ccc(CO)cc1 [4-Amino Benzyl Alcohol] |  | 27.4 min | 
NCc1ccc(N)cc1 [4-Amino Benzylamine] |  | 7.34 ± 1.13 min | 
Nc1ccc(C=CC(=O)O)cc1 [4-Amino Cinnamic Acid] | 50.2 min | 16.7 min | 
Nc1ccc(CC(=O)O)cc1 [4-Amino Phenylacetic acid] | 50.2 min | 4.63 min | 
Nc1ccc(C[C@H](N)C(=O)O)cc1 [4-Amino Phenylalanine] | 55.2 ± 7.1 min | 7.65 ± 5.46 min | 
Nc1ccc(CCO)cc1 [4-Amino Phenylethyl Alcohol] |  | 10.8 min | 
Nc1ccc(C(=O)O)cc1O [4-Amino-3-Hydroxy Benzoic Acid] |  | 75.3 min | 
Cc1cc(C(=O)O)ccc1N [4-Amino-3-Methyl Benzoic Acid] |  | 15.8 min | 
NC(=O)c1ccc(N)cc1 [4-Aminobenzamide] |  | 13.4 ± 4.7 min | 
Nc1ccc(C(=O)c2ccccc2)cc1 [4-Aminobenzophenone] |  | 21.5 min | 
Nc1ccc(Cc2ccccc2)cc1 [4-Aminodiphenylmethane] | 43.0 min | 5.57 min | 
NCc1ccc(CN)cc1 [4-Aminomethyl Benzylamine] |  | 50.2 min and 33.5 min | 
O=C1c2ccccc2-c2ncccc21 [4-Aza-9-fluorenone] |  | 50.2 min | 
O=C(O)c1ccc(C(=O)c2ccccc2)cc1 [4-Benzophenone-carboxylic acid] |  |  | Half-Life of ADR Destruction, 100 μM Test Compound: 10.0 min; Half-Life of ADR Destruction, 100 μM Test Compound and 0.5 μM Riboflavin: 7.72 min

SMILES | Half-Life of ADR Destruction, 100 μM Test Compound [1] | Half-Life of ADR Destruction, 100 μM Test Compound and 0.5 μM Riboflavin [2] | other results
O=C(c1ccccc1)c1ccncc1 [4-Benzoylpyridine] | 17.2 ± 1.9 min | 11.6 min | 
Nc1ccc(OCc2ccccc2)cc1 [4-Benzyloxyaniline] | 100.3 min | 100.3 min | 
CCCCc1ccc(N)cc1 [4-Butyl Anilne] |  |  | Half-Life of ADR Destruction, 100 μM Test Compound and 0.5 μM Riboflavin: 7.17 min
O=C(O)c1cc(=O)c2ccccc2o1 [4-Chromone-2-carboxylic acid] | 15.8 min | 14.3 min | 
CCc1ccc(N)cc1 [4-Ethyl Aniline] |  | 10.4 min | 
O=C(O)c1cccc2c1-c1ccccc1C2 [4-Fluorene Carboxylic acid] | 30.1 min | 18.8 min | 
Nc1ccc(F)cc1 [4-Fluoro Aniline] |  | 12.0 min | 
CCCCCCc1ccc(N)cc1 [4-Hexyl Aniline] |  | 5.28 min | 
O=C(O)c1ccc(O)cc1 [4-Hydroxy Benzoic Acid] |  | 100.3 min | 
O=C(O)C=Cc1ccc(O)cc1 [4-Hydroxy Cinnamic Acid] | 50.2 min |  | 
NCCc1ccc(O)cc1 [4-Hydroxy Phenethylamine (Tyramine), 4-Hydroxy Phenethylamine] |  | 33.5 min | 
O=C(O)Cc1ccc(O)cc1 [4-Hydroxy Phenylacetic Acid] |  | 75.3 min | 
OCCc1ccc(O)cc1 [4-Hydroxy Phenylethyl Alcohol] |  | 50.2 min | 
NC(C(=O)O)c1ccc(O)cc1 (stereo not drawn) [4-Hydroxy Phenylglycine] |  | 24.2 ± 19.0 min | 
NCC(O)c1ccc(O)cc1 (stereo not drawn) [4-Hydroxy-β-hydroxy Phenethylamine] |  | 50.2 min | 
COc1ccc(C(=O)O)cc1 [4-Methoxy Benzoic Acid] |  | 33.5 min | 
COc1ccc(C=CC=O)cc1 [4-Methoxy Cinnamaldehyde] |  | 50.2 min | 
COc1ccc(C=CC(=O)O)cc1 [4-Methoxy Cinnamic Acid] | 75.3 min | 5.90 min | 
COc1ccc(C=CCO)cc1 [4-Methoxy Cinnamyl Alcohol] | 50.2 min | 9.12 min | 
COc1ccc(O)cc1 [4-Methoxy Phenol] | 50.2 min | 43.0 min | 
COc1ccc(CC(=O)O)cc1 [4-Methoxy Phenylacetic Acid] | 50.2 min | 30.1 min | 
COc1ccc(C[C@H](N)C(=O)O)cc1 [4-Methoxy Phenylalanine] |  | 15.1 min | 

From US20010056085A1, “Methods of using vesicant drug formulations” (priority 1996, published 2001)
